According to the pKa sets of Baltruschat and Czodrowski (2020):

Settings: acidic group

SMILES | pKa
S=C(/N=N/c1ccc2ccccc2c1)NNc1ccc2ccccc2c1 | 12.7
O=C(O)CCP | 4.23
O/N=C(/Cl)c1ccccc1 | 9.8
O=C(O)[C@]1(Cl)[C@@H]2CCC[C@@H]21 | 2.82
[NH3+]CC/C=C/C(=O)O | 3.83
O=C(O)c1ccc[n+]([O-])c1 | 2.95
COc1cccc(C(=O)O)c1 | 4.06
O=C1COC(=O)C1I (stereo unspecified) | 2.31
[NH3+]CCCCCCCCC(=O)O | 4.53
CN1CC[C@]23c4c5ccc(O)c4O[C@H]2[C@@H](O)C=C[C@H]3[C@H]1[C@H]5O | 9.06
[O-]c1nc(NO)cc[n+]1[C@H]1O[C@@H](CO)[C@H](O)[C@@H]1O | 10.5
O=C([O-])C(CO)NCc1ccccc1O (stereo unspecified) | 10.4
Cc1cc2ccccc2c(C(=O)O)c1C | 3.33
Cc1c(C)c2c(c(C)c1OP(=O)([O-])O)CCC(C)(CCC[C@@H](C)CCC[C@@H](C)CCCC(C)C)O2 (stereo partly specified) | 9.44
S=CNc1ccccc1Cl | 10
Cc1cc(O)[nH+]c(O)[nH+]1 | 1.2
CC(C)C(O)C(C(=O)O)c1ccc(-c2ccccc2)cc1 (stereo unspecified) | 4.13
CCCCc1c(-c2ccccc2)nn(-c2ccccc2)c1O | 7.2
N#CCc1ccc(C(=O)O)cc1 | 4.09
N#CC(CCC(=O)O)c1ccccc1 (stereo unspecified) | 4.4
C[NH+](C)CCCCCNC(=O)/C=N/O | 8.88
O=C1[N-]C(=S)NC(=O)C1C1C=CCCC1 (stereo unspecified) | 11.3
O=c1[nH]c(=O)c2ncn([C@H]3O[C@@H](CO)[C@H](O)[C@@H]3O)c2[nH]1 | 5.72
OCCCl | 14.4
Cc1ccc(O)c(Cc2cc(C)cc([N+](=O)[O-])c2O)c1 | 6.87
Nc1ncc([N+](=O)[O-])cn1 | 14.7
Oc1ccccc1I | 8.4

SMILES | pKa
O=c1cccc(O)cc1 | 5.64
Cc1ccnc(NS(=O)(=O)c2ccc(Cl)cc2)n1 | 5.37
Cc1cc(C(CC(=O)O)c2ccccc2)ccc1O (stereo unspecified) | 4.67
O=C(O)Cc1ccco1 | 3.72
C[NH+](C)Cc1cc(F)cc(C[NH+](C)C)c1O | 5.77
Cc1cc(N)c(O)cc1C | 10.4
CCC/C=C(\C)C(=O)O | 5.13
CC=C=CC(=O)CC(Cc1ccccc1)C(=O)[O-] (stereo unspecified) | 13.9
Cc1cc(C#N)cc(C)c1O | 8.27
CC1(C)OC(=O)C[C@H]2[C@@H](C(=O)O)[NH2+]C[C@H]21 | 2.27
O=C([O-])CS | 10.2
O=C(O)c1csc(Br)n1 | 3.28
CCCCP(=O)(O)CCCC | 3.22
COc1cc(C[NH+](C)C)c(O)c(C[NH+](C)C)c1 | 6.33
C[Si](C)(C)c1cccc(C(=O)O)c1 | 4.24
Oc1ccc(-c2cc(=S)ss2)cc1 | 7.86
Oc1cncc[nH+]1 | -0.1
CC(C)=CCC1C(=O)C(C(=O)CC(C)C)C(=O)C(CC=C(C)C)(CC=C(C)C)C1=O (stereo unspecified) | 6.18
Oc1cc[nH+]c2cccnc12 | 2.85
Nc1ccc([N+](=O)[O-])c(B(O)O)c1 | 10
COc1ccc(C=O)cc1O | 8.89
CCOC(=O)c1n[nH]c2c(c1=O)c(=O)n(C)c(=O)n2C | 7.32
S=C(Nc1ccc(Cl)cc1)c1ccccc1 | 10.8
CC(N)C(N)=O (stereo unspecified) | 8.02
Oc1cccn[nH+]1 | -1.8
NC(=O)CS(N)(=O)=O | 9.7
Cc1cc(C(=O)O)ccc1Br | 4.03

SMILES | pKa
CCC(P)C(=O)O (stereo unspecified) | 4.08
OC(O)=C(O)c1ccccc1 | 6.39
Oc1onc2c1CC[NH+](Cc1ccccc1)CC2 | 3.3
Oc1cc[nH+]c2ccccc12 | 2.27
[NH3+]C(Cc1c[nH]c2ccccc12)C(=O)O (stereo unspecified) | 2.48
O/C(=C\c1ccccn1)c1ccccc1 | 11.1
O=C(O)c1cc[n+]([O-])cc1 | 2.86
CN1C(=S)NC(=O)C12CCCCC2 | 9.25
C=CCOc1ccc(C(=O)O)cc1 | 4.45
CC(C)N(CCC(C(N)=O)(c1ccccc1)c1ccccn1)C(C)C (stereo unspecified) | 10.2
Cc1cc[nH]c1C(=O)O | 5.1
C[Si](C)(C)c1ccc(C(=O)O)cc1 | 4.27
CN(O)C(=O)C(C)(C)C | 9.94
[O-]c1ccc(O)cc1Cl | 10.8
O=C(O)Cc1ccc(Cl)s1 | 3.89
C=CCc1ccc(O)c(OC)c1 | 10
Cn1c(=S)[nH]c2cncnc21 | 7.48
COC(=O)Nc1ncnc2nc[nH]c12 | 9.68
Cn1nc(-c2ccccc2)cc1O | 10.9
CCc1ccc(C(=O)/C=C/C(=O)O)cc1 | 3.38
C[n+]1c(N)ccnc1[O-] | 13.5
c1nc2cc3c(cc2[nH]1)CCCC3 | 13.3
CCOC(=O)C(CC)C(C)=O (stereo unspecified) | 12.7
[NH3+]CCCCCCNC(=S)S | 2.95
O=C1CC(=O)CS(=O)C1 | 3.12
O=C(O)c1[nH]c2ccccc2[nH+]1 | 0.4

Same assay, conditions: basic group

SMILES | pKa
Cc1cc(-c2ccccc2)nnc1NCCN1CCOCC1 | 7.05
CN(C)Cc1cccc(O)c1O | 8.01
CCCCN(CC1CO1)CC1CO1 (stereo unspecified) | 6.91
C[C@@H]1CCN2CC=C[C@H]12 | 10.6
SCCNCc1cccs1 | 8.93
[NH3+]CCC(=O)NC(Cc1c[nH]cn1)C(=O)[O-] (stereo unspecified) | 7.08
C1CSCCN1 | 9.05
c1ccc2c(c1)N1CCN2CC1 | 5.65
CCC(N)(CC)CC | 10.9
Cc1ccc(-c2ncc(-c3ccc(Cl)cc3)o2)cc1 | 0.88
CCNC(C)C(=O)[O-] (stereo unspecified) | 10.2
COc1cncnc1[O-] | 8.6
Nc1ccc(-c2ncc(-c3ccc(Br)cc3)o2)cc1 | 2.8
O=C(O)c1ccc[n+]([O-])c1 | 0.41
Cc1ccccc1/C(=N\CCC[NH+](C)C)c1ccccc1Cl | 3.37
c1c(CN2CCNCC[NH2+]CC2)n[nH]c1CN1CCNCCNCC1 | 10.5
CNC(=N)N | 13.4
CNc1ccc(O)cc1 | 6
O=C(NCCN1CCOCC1)c1ccc(Cl)cc1 | 6.31
[O-]c1cccc(Cl)n1 | 7.76
CCOCCNc1cccc(C)c1 | 4.24
CCCCN1CCCC1 | 10.4
CN(C)/C=N/c1ccccc1Cl | 6.85
CN1CC[C@]23c4c5ccc(O)c4O[C@H]2[C@@H](O)C=C[C@H]3[C@H]1[C@H]5O | 7.13
N#Cc1ccccc1N | 0.95
CCCCCCCCCCN(CC(O)CC)CC(O)CC (stereo unspecified) | 6.6

SMILES | pKa
Nc1nccc2c1ncn2CCOCP(=O)([O-])[O-] | 7.87
O=C([O-])C(CO)NCc1ccccc1O (stereo unspecified) | 8.22
CCC1CCCN1C (stereo unspecified) | 9.78
COc1nc(C)cc([O-])n1 | 8.4
CC(C=C(c1cccs1)c1cccs1)N1CCCCC1C (stereo unspecified) | 7.46
CC(=O)c1cccc(N)c1 | 3.61
Cn1ccc(=O)c2ccccc21 | 2.36
CCN(C)CCOCCN(C)C | 9.65
C#CCCN | 9.23
Cc1cccc(-n2nnnc2N)c1 | 1.08
COc1ccc(-c2cnc(-c3ccccc3)o2)cc1 | 1.05
Cc1ccc2c(c1)c1c3n2CCN=C3CCC1 | 8.57
O=C1c2ncnc([O-])c2C(=O)c2nc[nH]c21 | 5.99
CCCSCCN | 9.43
CN(CC[NH+](C)C)CC[NH+](C)C | 2.57
Nc1ncnc2c1cnn2CCO | 4.29
CCCCCC(C)N (stereo unspecified) | 11.2
[O-]c1ccncc1Br | 9.4
Cc1cc(N)c(O)cc1C | 5.28
OCCCc1ccncc1 | 5.9
Cc1ccc([N+](=O)[O-])cc1/C(=N/CCCN(C)C)c1ccccc1 | 8.8
CN(C)c1ccc(C(O)(c2ccccc2)c2ccc(N(C)C)cc2)cc1 | 6.93
CCN(CC)CC(O)CN(CC)CC | 9.8
C#CCCN(C)C | 8.33
N[C@@H](CC(=O)[O-])C(=O)[O-] | 9.54
Cn1cccn1 | 2.48

SMILES | pKa
c1ccc2c(c1)cnc1ccccc12 | 4.58
CC(C)CCN | 10.9
CC/C(N)=N/O | 5.95
CCCCNCCC(=O)[O-] | 10.6
Cc1cc(=O)n(-c2ccccc2)n1C | 1.45
CC[C@]1(O)C[C@@H](C)N[C@@H]2CCCC[C@H]21 | 10.3
c1ccc(C(CCN2CCCCC2)c2ccccc2)cc1 | 8.96
C1CNCCNCCN1 | 10.6
C[C@@H](Cc1ccccc1)N(C)C | 9.4
Cc1ccccc1NC1CCCC1 | 5.07
COc1ccc(-c2ncc(-c3ccc([NH3+])cc3)o2)cc1 | 0.85
Nc1ccc2cnc3ccccc3c2c1 | 6.88
C1CCN(C2CC[NH2+]CC2)CC1 | 7.97
Cn1ncc2c(Nc3ccccc3)ncnc21 | 3.53
OC(CN1CCOCC1)C[NH+]1CCOCC1 | 5
Cc1cncc(C)c1 | 6.15
N=C(c1ccccc1)c1ccccc1O | 5
O/C(=C\c1ccccn1)c1ccccc1 | 4.52
Brc1ccc2c(c1)CCN2 | 3.7
CN1[C@@H]2CC[C@H]1C[C@H](OC(=O)C(O)c1ccccc1)C2 (stereo partly specified) | 9.61
c1cc(N2CCOCC2)c2c(N3CCOCC3)cccc2c1 | 7.49
COc1ccccc1C(=N)c1ccccc1 | 7.29
CCN(CC)CC(O)CO (stereo unspecified) | 9.77
COc1ccc(C(O)CN)cc1 (stereo unspecified) | 9.02
COCCN(CCOC)c1ccccc1 | 4.11
CCP(=S)(CC)C(=S)NN | 5.6

SMILES | pKa
COC(=O)Nc1ncnc2nc[nH]c12 | 2.27
CS[C@H]1CCC[C@@H]1N(C)C | 8.85
C=C(C)C(=O)OCCN(C(C)C)C(C)C | 8.77
c1cc2c(cn1)CCCC2 | 6.65
CCN(CCO)c1ccc(N)cc1 | 7.12
C[n+]1c(N)ccnc1[O-] | 7.38
CC(N)=S | -2.51
O=C([O-])c1cnc2ccccc2c1 | 4.68
NNC(=O)c1cccc([NH3+])c1 | 2.57
c1nc2cc3c(cc2[nH]1)CCCC3 | 5.98
CN(C)CC(C)(C)CN | 10.1
Cc1cccc2[nH]cnc12 | 5.67
CN(C)c1cc[nH+]cc1 | -7.78
Nc1ccncc1C(=O)[O-] | 9.1
C[NH+](C)CCN | 6.63
N[C@H]1CONC1=O | 7.53
Nc1ccc([NH3+])cc1 | 2.86
N[C@@H](CCCCN1C(=O)C[C@H](N)C1=O)C(=O)[O-] | 9.5
CCO[Si](C)(CN)OCC | 9.19
Nc1ccc(C=O)cc1 | 1.74
CSc1cc2ccccc2cn1 | 3.41
Cc1ccc(CNCC[NH3+])cc1 | 6.51
CC(=O)c1cccnc1 | 3.32
